In patent publication US20140066385A1, “METHOD FOR TREATING CANCER BY COMBINED USE OF DRUGS” (Astellas Pharma Inc., priority 2011, published 2014):

Tested on: human gastric cancer (MKN-28)
Assay: Example 5: FK330 with paclitaxel in MKN-28 tumor-bearing mice
Type: in vivo, nude mice
Conditions: for tumor volume on the last day of experiment: MKN-28, Day 84, mean±SEM
Procedure: Preparation of the test substances was carried out in the same manner as in Example 2.
Human gastric cancer-derived NCI-N87 (CRL-5822) was obtained from American Type Culture Collection (VA, USA), MKN-28 (JCRB0253) was obtained from Health Science Research Resources Bank (HSRRB), and AZ-521 (RCB2087) was obtained from Riken BRC. NCI-N87 and MKN-28 cells were cultured under the conditions of 37° C. and 5% CO2 by using RPMI1640 medium containing 10% heat-inactivated fetal bovine serum (FBS), and AZ-521 cells were cultured under the conditions of 37° C. and 5% CO2 by using DMEM medium containing 10% heat-inactivated FBS. The cells were harvested with trypsin and were suspended in PBS at 6×10^7 cells/mL, and the suspension was mixed with an equal amount of Matrigel (trade name) Basement Membrane Matrix (manufactured by Becton Dickinson Co., Bedford, Mass., USA).
Five-week old male nude mice (CAnN Cg-Foxn1nu/CrlCrlj(nu/nu)) were purchased from Charles River Laboratories Japan, Inc. (Japan, Kanagawa). The animals were raised under specific pathogen-free (SPF) conditions throughout the test period by feeding standard feedstuff and drinking water. The cultured cells were subcutaneously inoculated into the dorsal region of the nude mice at a concentration of 3×10^6 cells/0.1 mL/mouse. […]
Every 2 to 4 days, the body weight and the tumor diameters, determined by using a digital caliper, were measured. The tumor volume was calculated from the calculation formula for ellipsoid volume of (major axis×[minor axis]^2×0.52).
The results are expressed as the mean value (Mean)±standard error (SEM). Using the actual measured values of the tumor volume at each measurement time point, an unpaired statistical test (Student's t-test) of the difference between two groups was carried out between a single administration group and a combined use group. […]

O=C(/C=C/c1ccc(Cl)cc1)N[C@@H](Cc1ccccn1)C(=O)NCC(=O)N1CCC(Oc2cc(C(F)(F)F)ncn2)CC1 [FK330, N^2-[(2E)-3-(4-chlorophenyl)-2-propenoyl]-N-[2-oxo-2-(4-{[6-(trifluoromethyl)pyrimidin-4-yl]oxy}piperidin-1-yl)ethyl]-3-pyridin-2-yl-L-alaninamide]
tumor volume on the last day of experiment (combined use group paclitaxel + FK330 100 mg/kg bid): 164.8±18.5 mm^3 | tumor volume decrease compared with the paclitaxel-only group (MKN-28, last day, FK330 100 mg/kg bid + paclitaxel, P=0.08): 63.7%

CC(=O)O[C@H]1C(=O)[C@@]2(C)[C@H]([C@H](OC(=O)c3ccccc3)[C@]3(O)C[C@H](OC(=O)[C@H](O)[C@@H](NC(=O)c4ccccc4)c4ccccc4)C(C)=C1C3(C)C)[C@]1(OC(C)=O)CO[C@@H]1C[C@@H]2O [paclitaxel, reference compound]
tumor volume on the last day of experiment (paclitaxel-only group 10 mg/kg/day i.v., three cycles): 454.1±147.5 mm^3
